Laboratory results: paper PMC9013686, “Inter-individual variation in chlorpyrifos toxicokinetics characterized by physiologically based kinetic (PBK) and Monte Carlo simulation comparing human liver microsome and Supersome™ cytochromes P450 (CYP)-specific kinetic data as model input” (Archives of Toxicology, 2022)
Values joined by “and” are separate entries in the source; they are usually repeats but may differ in a detail not shown here. Identical values can stand only once. Like-named read-outs stand apart in the source and are kept apart here.

How the values were obtained:
[1] = tested on: CYP1A2, CYP2B6, CYP2C19 and CYP3A4; experiment: Summed Supersome CYP kinetics scaled to whole liver; assay type: in vitro ADME, human
Experimental: (§1) The in vivo Kmi values were assumed to be equal to the apparent Kmi(app) values (µM) obtained in the in vitro incubations, while the in vivo Vmaxi for each CYP isoform was derived from their corresponding apparent CYP isoform Vmaxi(app) (pmol/min/pmolCYP) using Eq. 3:3 Vmaxi=Vmaxiapp×CYPiabundance×ISEF×60×MPL×1000×VL/1,000,000,
To gain a better insight in the contribution of each CYP to the metabolism of CPF in vivo at different concentrations of CPF, the apparent Supersome™ kinetic data were scaled toward the whole liver according to Eq. 3.
To evaluate the performance of the Supersomes™ together with the ISEF to predict the bioactivation of CPF, the sum of the scaled CE of the four individual Supersomes™ was compared to the CE obtained for the pooled HLMs (for both non-biphasic and biphasic scenarios).

[2] = biological target: CYP2C19 (Homo sapiens, UniProt P33261); details: bioactivation of CPF, ref Foxenberg et al. [2007]; cited from earlier work
CYP2C19, sequence (P33261 whole entry): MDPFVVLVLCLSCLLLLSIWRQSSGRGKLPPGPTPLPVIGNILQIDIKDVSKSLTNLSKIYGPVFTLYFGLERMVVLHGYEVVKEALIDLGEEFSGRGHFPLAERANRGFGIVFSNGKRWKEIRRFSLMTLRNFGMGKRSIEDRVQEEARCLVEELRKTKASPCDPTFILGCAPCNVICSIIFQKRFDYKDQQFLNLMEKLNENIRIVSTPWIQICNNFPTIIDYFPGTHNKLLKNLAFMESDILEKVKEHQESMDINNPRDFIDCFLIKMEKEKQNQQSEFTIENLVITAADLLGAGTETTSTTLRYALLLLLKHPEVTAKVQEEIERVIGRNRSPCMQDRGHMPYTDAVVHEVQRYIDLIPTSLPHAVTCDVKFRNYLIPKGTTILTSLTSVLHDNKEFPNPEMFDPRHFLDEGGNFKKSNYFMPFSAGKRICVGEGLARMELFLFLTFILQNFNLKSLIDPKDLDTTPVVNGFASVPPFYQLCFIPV

[3] = cited from earlier work
[4] = tested on: pooled HLMs (CYPs); experiment: CYP-mediated biotransformation of CPF in pooled HLMs (literature kinetic data); assay type: in vitro ADME, human; details: bioactivation of CPF
From the text: (§2) As mentioned before, the in vitro apparent kinetic parameters (Vmax and Km) for pathway 1 and pathway 2 in the HLM-based approach, and pathway 3 in both approaches were all obtained directly from reported studies using pooled HLMs (Buratti et al. [2003]; Sams et al. [2004]; Zhao et al. [2019]). Therefore, no extra calculations were required to define these parameters. The kinetic parameters for the ISEF calculation, pathway 1 and 2 in the Supersome™-based approach, and pathway 4 in both approaches (25 individuals) were all obtained by fitting the experimental data to the Michaelis–Menten model using GraphPad (GraphPad Prism 5.0 software, San Diego, CA, USA). It should be noted that the kinetic parameters for pathway 4 used in the two approaches were calculated as mean of the kinetic parameters (Vmax and Km) obtained using 25 individual HP samples (with correction for total protein concentration of each plasma sample).

[5] = tested on: rat liver microsomes; details: bioactivation of CPF, biphasic kinetics; ref Ma and Chambers ([1995]); cited from earlier work
[6] = biological target: CYP3A4 (Homo sapiens, UniProt P08684); experiment: Supersome CYP3A4 kinetic incubations; assay type: in vitro ADME; set-up: purchased Corning (Amsterdam, The Netherlands); host or cells: baculovirus-transfected insect cells; details: for Scaled Vmax(app): CYP3A4 scaled to whole liver by Eq. 3; for Vmax (app) / Km: Supersome CYP3A4
CYP3A4, sequence (P08684 2-503 limits assumed): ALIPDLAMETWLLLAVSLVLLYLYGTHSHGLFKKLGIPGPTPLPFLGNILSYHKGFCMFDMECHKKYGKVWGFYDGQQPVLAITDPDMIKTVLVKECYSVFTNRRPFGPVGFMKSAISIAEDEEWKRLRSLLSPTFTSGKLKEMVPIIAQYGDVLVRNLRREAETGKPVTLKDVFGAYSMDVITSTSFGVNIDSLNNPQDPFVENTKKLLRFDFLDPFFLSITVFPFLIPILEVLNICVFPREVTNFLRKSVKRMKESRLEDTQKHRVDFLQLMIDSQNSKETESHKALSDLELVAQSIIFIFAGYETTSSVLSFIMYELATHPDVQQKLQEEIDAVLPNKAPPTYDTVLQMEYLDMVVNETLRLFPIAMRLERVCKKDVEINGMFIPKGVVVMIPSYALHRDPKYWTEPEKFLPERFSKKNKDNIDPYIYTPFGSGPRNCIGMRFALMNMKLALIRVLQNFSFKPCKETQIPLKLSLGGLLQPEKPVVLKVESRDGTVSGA
Experimental: The final incubations were carried out in 50 mM Tris–HCl (pH 7.4) containing 5 mM MgCl2, 1 mM EDTA (as an A-esterase PON1 inhibitor) (Bizoń and Milnerowicz [2018]), 50 µM iso-OMPA (as a B-esterases inhibitor) (Lane et al. [2006]), Supersome™ isoform (at final concentration of 0.005 nmol CYP/ml for 1A2, 0.001 nmol CYP/ml for 2B6, 0.01 nmol CYP/ml for 2C19, and 0.01 nmol CYP/ml for 3A4) and CPF at different final concentrations (0.05, 0.1, 0.25, 0.5, 1, 5 and 10 µM for 1A2, 0.05, 0.1, 0.25, 0.5, 1, 5 10 and 25 µM for 2B6, 1, 2.5, 5, 10, 25 and 50 µM for 2C19, and 0.5, 1, 2.5, 5, 10, 25 and 50 µM for 3A4), which were added from 100 times concentrated stock solutions in ACN. After 1 min preincubation in a 37 °C water bath, 5 µl NADPH (final concentration 1 mM) was added to the incubation system. Control incubations were performed by replacing NADPH with the same amount of Tris–HCl (pH 7.4). The total volume of the incubation mixtures was 200 µl. The incubations lasted for 2 min at 37 °C and were terminated by addition of 50 µl ice cold ACN and subsquently put on ice. After that, samples were centrifuged at 16,000 g (4 ℃) for 5 min and supernatants of samples were separated into two equal portions for Ultra-Performance Liquid Chromatography-Photodiode Array (UPLC-PDA) and Liquid Chromatography Mass Spectrometry (LC–MS/MS) analysis, respectively.
To normalize for differences in intrinsic CYP activity between Supersome™ and pooled HLMs and enable scaling of the activities to the in vivo situation, CYP-specific ISEF values need to be established. […] The incubation method was similar as used for the CPF kinetic incubation assay described above, except that certain incubation conditions were replaced by the conditions listed in Table 1. The samples obtained were analyzed by UPLC-PDA for acetaminophen, 4-hydroxymephenytoin, and 6β-hydroxytestosterone formation catalyzed by 1A2, 2C19 and 3A4, or LC–MS/MS for (±)-hydroxybupropion formation catalyzed by 2B6.
as §2, §1

[7] = tested on: RBC AChE; details: ref USEPA (2014); cited from earlier work

With `CCOP(=S)(OCC)Oc1nc(Cl)c(Cl)cc1Cl` [CPF, Chlorpyrifos] as the molecule, how does the “summed scaled CE of Supersomes” value ([1]; bioactivation of CPF, sum of four individual Supersomes) read?
The value was 1578 L/h.

And the “overall extrapolated Vmax from Supersome data versus HLM-derived Vmax” value ([1]; high affinity component)?
The value was 1.9 fold.

What about the “overall extrapolated Vmax from Supersome data versus HLM-derived Vmax” value ([1]; low affinity component) of the same molecule?
Its value is 0.9 fold.

And the Km [2]?
The Km was 1.23 µM.

And the “ka (absorption rate constant)” value ([3]; PBK model input, mean, ref Bouchard et al. ([2005]))?
Its value is 0.46 h⁻¹.

And the “fa (fractional absorption), mean” value ([3]; mean of the reported fa values, ref Timchalk et al. ([2002]), Nolan et al. ([1984]))?
The value was 0.462 and 0.46.

And the “fa (fractional absorption)” value ([3]; ref Nolan et al. ([1984]))?
Its value is 0.7.

And the “fa (fractional absorption)” value ([3]; ref Timchalk et al. ([2002]))?
Its value is 0.224.

What about the “CE of pooled HLM, biphasic kinetics” value ([4]; high and low affinity phase included) of the same molecule?
Its value is 3600 L/h.

And the “CE of pooled HLM, high affinity phase excluded” value ([4]; non-biphasic)?
The value was 41 L/h.

And the “Km of high affinity phase lower than that of low affinity phase” value [5]?
Its value is 50 fold.

What about the “Scaled Vmax(app)” value ([6]; Pathway 1 (CPF to CPO)) of the same molecule?
The value was 910.77 µmol/h.

And the “Vmax (app)” value ([6]; Pathway 1 (CPF to CPO))?
Its value is 17.78 pmol/min/pmolCYP.

What about the “Scaled Vmax(app)” value ([6]; Pathway 2 (CPF to TCPy)) of the same molecule?
The value was 1222.21 µmol/h.

And the “Vmax (app)” value ([6]; Pathway 2 (CPF to TCPy))?
Its value is 23.86 pmol/min/pmolCYP.

And the Km ([6]; human, recombinant CYP3A4 Supersomes, pH 7.4, Km(app), Pathway 1 (bioactivation of CPF to CPO))?
Its Km is 29.8 µM.

And the Km ([6]; human, recombinant CYP3A4 Supersomes, pH 7.4, Km(app), Pathway 2 (detoxification of CPF to TCPy))?
Its Km is 18.1 µM.

What about the Km ([6]; read-out: Km(app), Pathway 1 (bioactivation of CPF to CPO)) of the same molecule?
The Km was 29.8 µM.

What about the “BMDL10 (EPA, derived from human PBPK-PD model)” value [7] of the same molecule?
The value was 0.47 mg/kg bw.
